According to patent US20110237520A1, “Anticancer Compounds” (priority 2008, published 2011):
Read-outs that look alike come from different tables or passages of the source. Numbered stars: 1 amine (or outer) side, 2 acyl side, 3 side chain; on linkers, the order of the positions; unused ones are H or OH. Bridge positions count the residues as written; N and C are the ends. Square brackets hold non-standard residues; d marks the D form. Peptide text beside a SMILES is read from it. * marks the point of attachment. ξ: configuration not given here. dNle(3R-OH,4R,5-Me2) = CC(C)[C@@H](C)[C@@H](O[*:3])[C@@H](N[*:1])C(=O)[*:2]; γ4hArg(2R,3R-(OH)2) = N=C(N)NCCC[C@H](N[*:1])[C@@H](O)[C@@H](O)C(=O)[*:2]; Heptanoyl(3R-OH,2R,4R,6-Me3) = CC(C)C[C@@H](C)[C@@H](O)[C@@H](C)C(=O)*; X5 = CO[C@H](c1ccc(O)cc1)C(N[*:1])C(=O)C[C@H](CC(N)=O)C(=O)[*:2]; Gln(3S,4R-Me2) = C[C@H]([C@H](N)C(=O)O)[C@@H](C)C(N)=O; X1 = NC(=O)CC[C@H](N[*:1])[C@@H](O)[C@@H](O)C(=O)[*:2]; X7 = O=C(O)CC[C@H](N[*:1])[C@@H](O)[C@@H](O)C(=O)[*:2]; ξThr(3R)(O-yl) = C[C@@H](O[*:3])C(N[*:1])C(=O)[*:2]; X6 = CC[C@@H](C)C[C@@H](C)[C@@H](O)[C@@H](C)C(=O)*; X4 = C[C@H](C(N[*:1])C(=O)[*:2])[C@@H](C)C(N)=O; Asn(3S-OEt) = CCO[C@H](C(N)=O)[C@H](N)C(=O)O; dAsp(3S-OH) = N[C@@H](C(=O)O)[C@H](O)C(=O)O; ξGln(3,4-Me2) = CC(C(N)=O)C(C)C(N)C(=O)O; X3 = CC(O)C(N[*:1])C(O)C(O)C(=O)[*:2]; ξAsn(3ξ-OMe) = COC(C(N)=O)C(N)C(=O)O; d(aThr) = C[C@@H](O)[C@@H](N)C(=O)O; X2 = CC(C)CC(C)CC(C)C(O)C(C)C(=O)*; NMeQ = CN[CH](CCC(N)=O)C(=O)O; ξNle(4ξ-Me) = CCC(C)CC(N)C(=O)O; ξThr(3R) = C[C@@H](O)C(N)C(=O)O; dOrn = NCCC[C@@H](N)C(=O)O; Pip = O=C(O)[CH]1CCCCN1; Orn = NCCC[CH](N)C(=O)O; ξL = CC(C)CC(N)C(=O)O

What was measured:
MDA-MB-231 = assay: SRB colorimetric cytotoxicity assay, MDA-MB-231; format: cell-based, human; conditions: MDA-MB-231, 72 hours treatment; for GI50: 50% cell growth inhibition; for TGI: total cell growth inhibition
Text: (§1) The aim of this assay is to evaluate the in vitro cytostatic (ability to delay or arrest tumor cell growth) or cytotoxic (ability to kill tumor cells) activity of the samples being tested.
(§2) A colorimetric assay, using sulforhodamine B (SRB) reaction has been adapted to provide a quantitative measurement of cell growth and viability (following the technique described by Skehan et al. J. Natl. Cancer Inst. 1990, 82, 1107-1112).
(§3) This form of assay employs SBS-standard 96-well cell culture microplates (Faircloth et al. Methods in Cell Science, 1988, 11(4), 201-205; Mosmann et al, Journal of Immunological Methods, 1983, 65(1-2), 55-63). All the cell lines used in this study were obtained from the American Type Culture Collection (ATCC) and derive from different types of human cancer.
(§4) Cells were maintained in Dulbecco's Modified Eagle Medium (DMEM) supplemented with 10% Fetal Bovine Serum (FBS), 2 mM L-glutamine, 100 U/mL penicillin and 100 U/mL streptomycin at 37° C., 5% CO2 and 98% humidity. For the experiments, cells were harvested from subconfluent cultures using trypsinization and resuspended in fresh medium before counting and plating.
(§5) Cells were seeded in 96 well microtiter plates, at 5×10^3 cells per well in aliquots of 150 μL, and allowed to attach to the plate surface for 18 hours (overnight) in drug free medium. After that, one control (untreated) plate of each cell line was fixed (as described below) and used for time zero reference value. Culture plates were then treated with test compounds (50 μL aliquots of 4× stock solutions in complete culture medium plus 4% DMSO) using ten serial dilutions (concentrations ranging from 10 to 0.00262 μg/mL) and triplicate cultures (1% final concentration of DMSO). After 72 hours treatment, the antitumor effect was measured by using the SRB methodology: Briefly, cells were washed twice with PBS, fixed for 15 min in 1% glutaraldehyde solution at room temperature, rinsed twice in PBS, and stained in 0.4% SRB solution for 30 min at room temperature. Cells were then rinsed several times with 1% acetic acid solution and air-dried at room temperature. SRB was then extracted in 10 mM trizma base solution and the absorbance measured in an automated spectrophotometric plate reader at 490 nm. Effects on cell growth and survival were estimated by applying the NCI algorithm (Boyd M R and Paull K D. Drug Dev. Res. 1995, 34, 91-104).
(§6) Using the mean±SD of triplicate cultures, a dose-response curve was automatically generated using nonlinear regression analysis. Three reference parameters were calculated (NCI algorithm) by automatic interpolation: GI50=compound concentration that produces 50% cell growth inhibition, as compared to control cultures; TGI=total cell growth inhibition (cytostatic effect), as compared to control cultures, and LC50=compound concentration that produces 50% net cell killing (cytotoxic effect).

HT29 = assay: SRB colorimetric cytotoxicity assay, HT29; format: cell-based, human; conditions: for GI50: 50% cell growth inhibition; for CC50: 50% net cell killing, read-out: LC50 (the source's name); for TGI: total cell growth inhibition
Text: as §1, §2, §3, §4, §5, §6

A549 = assay: SRB colorimetric cytotoxicity assay, A549; format: cell-based, human; conditions: A549, 72 hours treatment; for GI50: 50% cell growth inhibition; for CC50: 50% net cell killing, read-out: LC50 (the source's name); for TGI: total cell growth inhibition
Text: as §1, §2, §3, §4, §5, §6

HIV-1 = conditions: cell-based XTT assay; read-out: IC50, cytoprotective activity against HIV-1 infection; cited from earlier work
HIV-1RF [1] = conditions: human T-cell line CEM-SS infected with HIV-1RF, 6 day incubation; read-out: EC50, inhibition of the cytopathic effect of HIV-1 infection; cited from earlier work
HIV-1RF [2] = conditions: in vitro; cited from earlier work
[3] = system: panel of human cancer cell lines; conditions: mean over a panel of human cancer cell lines; cited from earlier work
[4] = Homo sapiens, HT-29, HT29, 72 hours treatment

CCO[C@H](C(N)=O)[C@@H]1NC(=O)[C@H](CCC(N)=O)N(C)C(=O)[C@H](CC(C)C)NC(=O)[C@@H](CCCCN)NC(=O)[C@@H]([C@@H](C)O)NC(=O)[C@H](NC(=O)[C@@H](NC(=O)[C@H](O)[C@H](O)[C@H](CCC(N)=O)NC(=O)[C@@H](CC(=O)O)NC(=O)[C@H](C)[C@H](O)[C@H](C)CC(C)C)[C@@H](C)[C@@H](C)C(N)=O)[C@@H]([C@H](C)C(C)C)OC(=O)[C@@H]2CCCCN2C(=O)[C@@H](CC(=O)O)NC1=O [Pipecolidepsin A] ({Heptanoyl(3R-OH,2R,4R,6-Me3)}-[dD][X1][Gln(3S,4R-Me2)][dNle(3R-OH,4R,5-Me2)][d(aThr)][dK]L[NMeQ][Asn(3S-OEt)][dD][Pip]; ester 4-C)
GI50 (MDA-MB-231): 725 nM | LC50 (50% net cell killing) (MDA-MB-231): 1750 nM | TGI (MDA-MB-231): 1.15E−06 Molar | GI50 (HT29; HT29, 72 hours treatment): 1150 nM | CC50 (HT29; HT29, 72 hours treatment): 1570 nM | TGI (HT29; HT29, 72 hours treatment): 1.33E−06 Molar | GI50 (A549): 604 nM | CC50 (A549): 1390 nM | TGI (A549): 9.06E−07 Molar

CCO[C@H](C(N)=O)[C@@H]1NC(=O)[C@H](CCC(N)=O)N(C)C(=O)[C@H](CC(C)C)NC(=O)[C@@H](CCCCN)NC(=O)[C@@H]([C@@H](C)O)NC(=O)[C@H](NC(=O)[C@@H](NC(=O)[C@H](O)[C@H](O)[C@H](CCC(N)=O)NC(=O)[C@H](NC(=O)[C@H](C)[C@H](O)[C@H](C)CC(C)C)[C@H](O)C(=O)O)[C@@H](C)[C@@H](C)C(N)=O)[C@@H]([C@H](C)C(C)C)OC(=O)[C@@H]2CCCCN2C(=O)[C@@H](CC(=O)O)NC1=O [Pipecolidepsin B] ({Heptanoyl(3R-OH,2R,4R,6-Me3)}-[dAsp(3S-OH)][X1][Gln(3S,4R-Me2)][dNle(3R-OH,4R,5-Me2)][d(aThr)][dK]L[NMeQ][Asn(3S-OEt)][dD][Pip]; ester 4-C)
GI50 (MDA-MB-231): 23.3 nM | LC50 (50% net cell killing) (MDA-MB-231): 209 nM | TGI (MDA-MB-231): 6.58E−08 Molar | GI50 (HT29; HT29, 72 hours treatment): 14.4 nM | CC50 (HT29; HT29, 72 hours treatment): 65.8 nM | TGI (HT29; HT29, 72 hours treatment): 2.69E−08 Molar | GI50 (A549): 35.3 nM | CC50 (A549): 353 nM | TGI (A549): 1.08E−07 Molar

CCC(C)CC1NC(=O)C(CCCN)NC(=O)C(C(C)O)NC(=O)C(NC(=O)C(NC(=O)C(O)C(O)C(NC(=O)CNC(=O)C(C)C(O)C(C)CC(C)CC(C)C)C(C)O)C(C)C(C)C(N)=O)C(C)OC(=O)C2CCCCN2C(=O)C(CC(N)=O)NC(=O)C(C(OC)C(N)=O)NC(=O)C(CCC(N)=O)N(C)C1=O (centres unmarked) [Pipecolidepsin C] (X2-G[X3][ξGln(3,4-Me2)]TT[Orn][ξNle(4ξ-Me)][NMeQ][ξAsn(3ξ-OMe)]N[Pip]; ester 4-C; configuration not given here)
GI50 (MDA-MB-231; Homo sapiens): 480 nM | LC50 (50% net cell killing) (MDA-MB-231; Homo sapiens): 907 nM | TGI (MDA-MB-231): 6.48E−07 Molar | TGI (HT29; HT29, 72 hours treatment): 8.43E−07 Molar | GI50 (HT29; [4]): 648 nM | CC50 (HT29; [4]): 1040 nM | TGI (A549): 5.25E−07 Molar | GI50 (A549; Homo sapiens): 428 nM | CC50 (A549; Homo sapiens): 648 nM

CC[C@@H](C)C[C@@H](C)[C@@H](O)[C@@H](C)C(=O)N[C@H](CCCN)C(=O)N[C@@H](CCC(=O)O)[C@@H](O)[C@@H](O)C(=O)N[C@H](C(=O)N[C@H]1C(=O)N[C@H](CO)C(=O)N[C@H](CCCN)C(=O)N[C@@H](CC(C)C)C(=O)N(C)[C@@H](CCC(N)=O)C(=O)N[C@@H]([C@@H](C)OC)C(=O)N[C@H](CC(=O)O)C(=O)N2CCCC[C@H]2C(=O)O[C@@H]1[C@H](C)C(C)C)[C@@H](C)[C@@H](C)C(N)=O [homophymine A] (X6-[dOrn][X7][Gln(3S,4R-Me2)][dNle(3R-OH,4R,5-Me2)][dS][dOrn]L[NMeQ]T(Me)[dD][Pip]; ester 4-C)
IC50 (HIV-1): 75 nM

CO[C@H](c1ccc(O)cc1)C1NC(=O)[C@H](CCC(N)=O)N(C)C(=O)C(CC(C)C)NC(=O)[C@@H](CCCNC(=N)N)NC(=O)C([C@@H](C)O)NC(=O)C(NC(=O)C(NC(=O)[C@H](O)[C@H](O)[C@H](CCCNC(=N)N)NC(=O)[C@H](CC(N)=O)NC(=O)[C@H](C)[C@H](O)[C@H](C)CC(C)C)[C@@H](C)[C@@H](C)C(N)=O)[C@@H](C)OC(=O)[C@@H]2CCCCN2C(=O)[C@@H](CC(N)=O)CC1=O (stereo partly drawn) [neamphamide A] ({Heptanoyl(3R-OH,2R,4R,6-Me3)}-N[γ4hArg(2R,3R-(OH)2)][X4][ξThr(3R)(O-yl)][ξThr(3R)][dR][ξL][NMeQ][X5][Pip]; ester 4-C)
EC50 (HIV-1RF [1]): 28 nM

papuamide A
EC50, inhibition of infection of human T-lymphoblastoid cells by HIV-1RF (HIV-1RF [2]): approximately 4 ng/mL | mean IC50, cytotoxicity [3]: 75 ng/mL

papuamide B
EC50, inhibition of infection of human T-lymphoblastoid cells by HIV-1RF (HIV-1RF [2]): approximately 4 ng/mL
